These results are taken from patent US5086054A, “Novel arylcycloalkanepolyalkylamines” (SRI International, priority 1990, dated 1992).

The target in one test is PCP RECEPTOR
As to the kind of experiment: PCP receptor binding assay ([3H]-TCP displacement, brain membranes). The arrangement: species or system guinea-pig (male Hartley). The settings on record: for IC50: read-out: PCP RECEPTOR IC50. The procedure:
(§1) This example illustrates testing of compounds in receptor binding assays.
(§2) Frozen brains from male Hartley guinea-pigs were obtained from Pel-Freeze (Rogers, Arkansas).
(§3) The brains plus cerebella were homogenized in 10 volumes (v/w) of 0.1M, pH 7.4, ice-cold Tris-HCl buffer with a Brinkmann polytron at setting 4 for 20 seconds. The homogenates were centrifuged at 20,000×g for 20 minutes at 4° C. The pellets were suspended in 10 volumes of ice-cold water and, after sitting on ice for 10 minutes, were centrifuged 30 minutes at 20,000×g at 4° C. The resulting pellets were resuspended in the above Tris buffer in ratio 1:100 (w/v) for σ receptor assays or in 5 mM Tris-HCl having pH 7.4, for PCP receptor assays. The final suspension was homogenized with a dounce glass-glass tissue grinder Wheaton "200", at small clearance (B), with three strokes before use. Two milliter aliquots of the brain membrane preparation, containing 1.7 mg of protein, were incubated in quadruplicate for one hour at 23° C. with competing mixture of ligand and radioligand. For σ receptors, [^3 H]-d-SKF-10,047, 2 nM was used. For PCP receptors, [^3 H] TCP [^3 H]-1-[1-(2-thienyl)cyclohexyl]piperidine), 1 nM was used. The nonspecific bindings were defined by 0.1 mM d-SKF-10,047 and 0.1 mM phencyclidine respectively for σ and PCP receptors. After incubation, free ligand was separated from bound ligand by rapid filtration through Whatman GF/C filters. The filters had been soaked before use in isoamyl alcohol-saturated water to prevent nonspecific [^3 H]-d-SKF-10,047 binding to the filter. In the PCP receptor assay, the filter was soaked in 0.5% polyethylenimine to reduce the filter binding of [^3 H]-TCP. After filtration, the trapped tissue was washed three times with 4 ml aliquots of 0.1 M ice-cold Tris buffer at pH 7.4 for σ receptors and 5 mM, ice-cold Tris buffer pH 7.4 for PCP receptors. The filters were transferred to 5 ml of liquid scintillation fluid and the retained radioactivity was measured by liquid scintillation spectrometry.
Programs in Biomed. 17:107 (1983)].

The next test has as its target T1, SIGMA RECEPTOR (Cavia porcellus, UniProt Q60492).
T1 construct: Two milliter aliquots of the brain membrane preparation, containing 1.7 mg of protein; tissue Pel-Freeze (Rogers, Arkansas); host or cells: guinea-pig brains plus cerebella, membranes
As to the kind of experiment: Sigma receptor binding assay ([3H]-d-SKF-10,047 displacement, brain membranes). Details: species or system guinea-pig (male Hartley). The conditions noted are these: for IC50: read-out: SIGMA RECEPTOR IC50. How it is done:
as §1, §2, §3

Setting [1] is: Table 2, aryl ring substituents.

Structures are written as SMILES. “Also recorded” adds a separate entry of the source. Structures can show the parent of a compound that is named as a salt. Where two headings read alike, the source gives them in different places. Where only a bound is given, the exact number is not on record here.

T1 sequence (Q60492 whole entry): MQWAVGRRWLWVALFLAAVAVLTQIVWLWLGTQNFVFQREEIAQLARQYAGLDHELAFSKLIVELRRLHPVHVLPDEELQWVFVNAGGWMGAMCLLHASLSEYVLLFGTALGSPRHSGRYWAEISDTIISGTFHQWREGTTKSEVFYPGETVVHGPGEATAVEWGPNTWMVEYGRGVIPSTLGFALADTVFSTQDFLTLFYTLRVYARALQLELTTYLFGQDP

Take `COc1cccc(C2(CN(C)C)CCCCC2)c1` [Compound 42]: the figures for the IC50 at PCP RECEPTOR (setting [1]) and on SIGMA RECEPTOR (setting [1]) were more than 25 µM and 2.85 µM, respectively. Moreover, the “SIGMA RECEPTOR SLOPE” value at SIGMA RECEPTOR (Table 2) was found to be 0.70 ± 0.06.
Take `Oc1cccc(C2(CN3CCCCC3)CCCCC2)c1` [Compound 21]: the IC50 on PCP RECEPTOR (setting [1]) and on SIGMA RECEPTOR (setting [1]) was more than 25 µM each time. The “potency at σ receptors (in words)” value at SIGMA RECEPTOR is given as “diminished binding to σ receptors”.
For the compound `C[N+]1(CCOC(=O)C2(c3ccccc3)CCCCC2)CCCCC1` [Compound 4], the “potency at PCP receptors (in words)” value in the test with PCP RECEPTOR was “reduced the potency in the PCP receptor assay; also recorded: drastically reduced potency for both σ and PCP receptors; also recorded: inactive in the PCP assay; also recorded: did not increase potency for PCP receptors”. In addition, the IC50 is more than 25 µM on PCP RECEPTOR (Table 1, mean ± error (n)) and more than 25 µM at SIGMA RECEPTOR (Table 1, mean ± error (n)).
As for `COc1cccc(C2(CN3CCOCC3)CCCCC2)c1` [Compound 37], the IC50 at PCP RECEPTOR (setting [1]) and on SIGMA RECEPTOR (setting [1]) was more than 25 µM each time.
As to `c1ccc(C2(CN3CCCCC3)CCCC2)cc1` [Compound 44], the IC50 was more than 25 µM on PCP RECEPTOR (Table 3, cycloalkyl ring size) and 0.995 µM on SIGMA RECEPTOR (Table 3, cycloalkyl ring size). Moreover, the “SIGMA RECEPTOR SLOPE” value at SIGMA RECEPTOR (Table 3) was 1.03 ± 0.04.
For the compound `COc1ccc(C2(CN3CCCCC3)CCCCC2)cc1OC` [Compound 28], the IC50 on PCP RECEPTOR (setting [1]) was more than 25 µM; on SIGMA RECEPTOR (setting [1]), 0.387 ± 0.018 µM. Also, the “potency at σ receptors (in words)” value at SIGMA RECEPTOR is recorded as “slightly lower σ receptor potencies; also recorded: poor to reasonable potency at σ sites”. The “selectivity for σ receptors (in words)” value at SIGMA RECEPTOR is “substantially increases selectivity for σ receptors; also recorded: high selectivity for σ receptors”. The “SIGMA RECEPTOR SLOPE” value on SIGMA RECEPTOR (Table 2) is recorded as 0.56 ± 0.03.
As to `COc1cccc(C2(CN3CCCC3)CCCCC2)c1` [Compound 33], the values for the IC50 at PCP RECEPTOR (setting [1]) and on SIGMA RECEPTOR (setting [1]) were 0.552 ± 0.02 µM and 1.19 µM, respectively. Further, the “SIGMA RECEPTOR SLOPE” value on SIGMA RECEPTOR (Table 2) was 0.73 ± 0.08.
For `Cc1ccc(C2(CN(C)C)CCCCC2)cc1` [Compound 41], the IC50 is more than 25 µM on PCP RECEPTOR (setting [1]) and 0.541 µM on SIGMA RECEPTOR (setting [1]). Further, the “SIGMA RECEPTOR SLOPE” value at SIGMA RECEPTOR (Table 2) was 0.62 ± 0.03.
Take `O=C(OCCN1CCCC1)C1(c2ccccc2)CC1` [Compound 47, 2-(1-Pyrrolidino)ethyl 1-Phenylcyclopropane-1-carboxylate hydrochloride]: the IC50 on PCP RECEPTOR (Table 3, cycloalkyl ring size) is more than 25 µM; at SIGMA RECEPTOR (Table 3, cycloalkyl ring size), 1.46 µM. Also, the “SIGMA RECEPTOR SLOPE” value at SIGMA RECEPTOR (Table 3) was determined as 0.78 ± 0.09.
As to `c1ccc(C2(CN3CCCCC3)CCCCC2)cc1` [Compound 2], the “potency at PCP receptors (in words)” value in the test on PCP RECEPTOR is “reduced the potency in the PCP receptor assay”. For the same compound, the IC50 was found to be 1.83 µM at PCP RECEPTOR (Table 1, mean ± error (n)); 1.83 µM on PCP RECEPTOR (setting [1]); 1.83 µM at PCP RECEPTOR (Table 3, cycloalkyl ring size); 0.104 µM at SIGMA RECEPTOR (Table 3, cycloalkyl ring size). The “decreased potency for PCP receptors” value in the test with PCP RECEPTOR (relative to PCP (1)) is listed as “approximately 40 times”. Also, the “potency at σ receptors (in words)” value on SIGMA RECEPTOR is listed as “increased the potency of the compound in the σ receptor assay”. For the same compound, the “SIGMA RECEPTOR SLOPE” value at SIGMA RECEPTOR (Table 1, slope of dose response curve) is reported as 0.66 ± 0.1; on SIGMA RECEPTOR (Table 2), 0.66 ± 0.1; on SIGMA RECEPTOR (Table 3), 0.66 ± 0.01. The “increased potency for σ receptors” value on SIGMA RECEPTOR (relative to PCP (1)) is listed as “about 80 times”.
Regarding `COc1ccc(C2(CN3CCOCC3)CCCCC2)cc1OC` [Compound 38], the “potency at PCP receptors (in words)” value with PCP RECEPTOR was “essentially inactive in both σ and PCP binding assays”. For the same compound, the IC50 at PCP RECEPTOR (setting [1]) and on SIGMA RECEPTOR (setting [1]) was more than 25 µM throughout. For the same compound, the “potency at σ receptors (in words)” value on SIGMA RECEPTOR is “essentially inactive in both σ and PCP binding assays”.
For the compound `O=C(OCCN1CCCC1)C1(c2ccccc2)CCCC1` [Compound 46], the IC50 at PCP RECEPTOR (Table 3, cycloalkyl ring size) was more than 25 µM; on SIGMA RECEPTOR (Table 3, cycloalkyl ring size) it was 0.454 µM. The “SIGMA RECEPTOR SLOPE” value on SIGMA RECEPTOR (Table 3) is given as 0.68 ± 0.06.
